Data reported in ChEMBL document CHEMBL4334512, “Rationally Designed, Conformationally Constrained Inverse Agonists of RORγt-Identification of a Potent, Selective Series with Biologic-Like in Vivo Efficacy” (J Med Chem, 2019).

Experiments:
[1] = Half life in dog at 1 mg/kg, iv; type: ADME, organism-based, Canis lupus familiaris; details: in vivo
[2] = target: T1, Oxysterols receptor LXR-beta (Homo sapiens, UniProt P55055); assay: Activity at LXRbeta (unknown origin)
T1 sequence (P55055 whole entry): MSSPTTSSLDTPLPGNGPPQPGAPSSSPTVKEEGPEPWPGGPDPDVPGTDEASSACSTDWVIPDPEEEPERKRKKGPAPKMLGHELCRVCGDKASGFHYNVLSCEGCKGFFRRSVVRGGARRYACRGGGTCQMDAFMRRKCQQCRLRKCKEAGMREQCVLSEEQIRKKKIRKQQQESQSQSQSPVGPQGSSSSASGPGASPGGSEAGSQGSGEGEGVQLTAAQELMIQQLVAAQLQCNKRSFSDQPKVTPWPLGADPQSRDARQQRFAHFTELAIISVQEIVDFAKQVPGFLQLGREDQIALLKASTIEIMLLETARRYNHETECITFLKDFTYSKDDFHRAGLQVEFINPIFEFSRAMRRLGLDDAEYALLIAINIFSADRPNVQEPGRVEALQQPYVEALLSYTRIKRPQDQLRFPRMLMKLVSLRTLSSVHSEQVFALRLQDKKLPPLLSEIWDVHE

[3] = target: T2, Oxysterols receptor LXR-alpha (Homo sapiens, UniProt Q13133); assay: Activity at LXRalpha (unknown origin)
T2 sequence (Q13133 whole entry): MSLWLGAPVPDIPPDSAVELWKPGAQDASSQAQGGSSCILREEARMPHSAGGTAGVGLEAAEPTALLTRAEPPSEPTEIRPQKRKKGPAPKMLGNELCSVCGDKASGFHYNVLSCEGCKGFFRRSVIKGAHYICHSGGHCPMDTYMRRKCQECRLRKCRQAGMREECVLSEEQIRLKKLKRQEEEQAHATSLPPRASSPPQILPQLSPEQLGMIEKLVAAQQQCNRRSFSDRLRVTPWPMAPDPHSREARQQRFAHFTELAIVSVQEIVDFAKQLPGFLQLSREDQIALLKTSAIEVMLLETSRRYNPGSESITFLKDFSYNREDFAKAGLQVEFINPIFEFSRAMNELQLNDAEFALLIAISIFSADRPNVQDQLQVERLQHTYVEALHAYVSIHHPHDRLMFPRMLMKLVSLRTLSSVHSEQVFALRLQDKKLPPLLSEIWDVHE

[4] = Half life in mouse at 2 mg/kg, iv; type: ADME, organism-based; details: in vivo
[5] = system: Mus musculus; assay: Suppression of ear thickness in mouse model of IL-23 induced acanthosis model of psoriasis at 30 mg/kg, po BID for 10 days measured every other day relative to anti-IL-23 positive control; type: functional
[6] = Cmax in dog at 1 mg/kg, po; type: ADME, organism-based, Canis lupus familiaris; design: dose 1 mg/kg, route oral; details: in vivo
[7] = system: Mus musculus; assay: Suppression of IL-17F RNA expression in skin region of mouse model of IL-23 induced acanthosis model of psoriasis at 3 mg/kg, po BID for 10 days measured every other day relative to control; type: functional; details: 240 h
[8] = Oral bioavailability in rat at 4 mg/kg; type: ADME, organism-based; details: in vivo
[9] = Total AUC in dog at 1 mg/kg, po; type: ADME, organism-based, Canis lupus familiaris; design: dose 1 mg/kg, route oral, time AUCmax; details: in vivo
[10] = Total AUC in mouse at 4 mg/kg, po; type: ADME, organism-based; design: dose 4 mg/kg, route oral, time AUCmax; details: in vivo
[11] = Clearance in rat at 2 mg/kg, iv; type: ADME, organism-based; details: in vivo
[12] = target: T1, Oxysterols receptor LXR-beta; assay: Agonist activity at LXRbeta (unknown origin) by Gal4-Luc reporter gene assay
[13] = system: Mus musculus; assay: Suppression of IL-22 RNA expression in skin region of mouse model of IL-23 induced acanthosis model of psoriasis at 3 mg/kg, po BID for 10 days measured every other day relative to control; type: functional; details: 240 h
[14] = target: T3, Nuclear receptor ROR-beta (Homo sapiens, UniProt Q92753); assay: Agonist activity at RORbeta (unknown origin) by Gal4-Luc reporter gene assay
T3 sequence (Q92753 whole entry): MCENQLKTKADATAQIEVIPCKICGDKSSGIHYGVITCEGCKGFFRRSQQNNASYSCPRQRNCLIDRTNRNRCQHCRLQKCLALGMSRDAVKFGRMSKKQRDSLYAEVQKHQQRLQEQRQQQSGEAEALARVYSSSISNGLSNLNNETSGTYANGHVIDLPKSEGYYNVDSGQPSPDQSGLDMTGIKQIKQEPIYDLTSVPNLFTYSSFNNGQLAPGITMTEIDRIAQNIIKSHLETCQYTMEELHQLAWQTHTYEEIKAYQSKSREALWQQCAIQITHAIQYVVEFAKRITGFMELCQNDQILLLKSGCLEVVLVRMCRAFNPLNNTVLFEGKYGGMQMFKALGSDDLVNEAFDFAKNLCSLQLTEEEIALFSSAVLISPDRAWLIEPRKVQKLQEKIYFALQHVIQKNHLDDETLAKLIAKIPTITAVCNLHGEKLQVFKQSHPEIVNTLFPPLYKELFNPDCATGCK

[15] = Unbound fraction in mouse serum; type: ADME, cell-free
[16] = Half life in rat liver microsomes; type: ADME, Microsome
[17] = Oral bioavailability in dog at 1 mg/kg; type: ADME, organism-based, Canis lupus familiaris; details: in vivo
[18] = system: Mus musculus; assay: Suppression of ear thickness in mouse model of IL-23 induced acanthosis model of psoriasis at 10 mg/kg, po BID for 10 days measured every other day relative to control; type: functional; details: 240 h
[19] = Half life in rat at 2 mg/kg, iv; type: ADME, organism-based; details: in vivo
[20] = target: Cytochrome P450 3A4 (Homo sapiens, UniProt P08684); assay: Inhibition of recombinant CYP3A4 (unknown origin) using BFC substrate; type: ADME
[21] = Drug level in Balb/c mouse at 10 mg/kg, po after 24 hrs; type: ADME, organism-based; details: in vivo, read-out: Drug uptake
[22] = Volume of distribution at steady state in dog at 1 mg/kg, iv; type: ADME, organism-based, Canis lupus familiaris; details: in vivo, read-out: Vdss
[23] = system: Mus musculus; assay: Suppression of IL-17F RNA expression in skin region of mouse model of IL-23 induced acanthosis model of psoriasis at 10 mg/kg, po BID for 10 days measured every other day relative to control; type: functional; details: 240 h
[24] = Oral bioavailability in mouse at 4 mg/kg; type: ADME, organism-based; details: in vivo
[25] = target: T4, Nuclear receptor subfamily 1 group I member 2 (Homo sapiens, UniProt O75469); assay: Agonist activity at PXR (unknown origin) by Gal4-Luc reporter gene assay)
T4 sequence (O75469 whole entry): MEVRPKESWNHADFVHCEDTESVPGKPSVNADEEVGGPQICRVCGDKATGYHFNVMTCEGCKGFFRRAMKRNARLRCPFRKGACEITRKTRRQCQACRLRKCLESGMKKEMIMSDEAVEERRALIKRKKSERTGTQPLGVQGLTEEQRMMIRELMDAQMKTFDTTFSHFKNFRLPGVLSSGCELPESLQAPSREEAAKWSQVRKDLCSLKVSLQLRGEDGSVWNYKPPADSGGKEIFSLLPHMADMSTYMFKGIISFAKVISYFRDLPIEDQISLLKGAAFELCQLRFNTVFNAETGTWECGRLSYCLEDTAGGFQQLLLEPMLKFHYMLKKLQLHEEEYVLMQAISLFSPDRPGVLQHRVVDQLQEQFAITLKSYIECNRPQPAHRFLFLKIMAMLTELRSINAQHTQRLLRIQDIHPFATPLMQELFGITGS

[26] = Clearance in mouse at 2 mg/kg, iv; type: ADME, organism-based; details: in vivo

Sequence of Cytochrome P450 3A4 (P08684 whole entry): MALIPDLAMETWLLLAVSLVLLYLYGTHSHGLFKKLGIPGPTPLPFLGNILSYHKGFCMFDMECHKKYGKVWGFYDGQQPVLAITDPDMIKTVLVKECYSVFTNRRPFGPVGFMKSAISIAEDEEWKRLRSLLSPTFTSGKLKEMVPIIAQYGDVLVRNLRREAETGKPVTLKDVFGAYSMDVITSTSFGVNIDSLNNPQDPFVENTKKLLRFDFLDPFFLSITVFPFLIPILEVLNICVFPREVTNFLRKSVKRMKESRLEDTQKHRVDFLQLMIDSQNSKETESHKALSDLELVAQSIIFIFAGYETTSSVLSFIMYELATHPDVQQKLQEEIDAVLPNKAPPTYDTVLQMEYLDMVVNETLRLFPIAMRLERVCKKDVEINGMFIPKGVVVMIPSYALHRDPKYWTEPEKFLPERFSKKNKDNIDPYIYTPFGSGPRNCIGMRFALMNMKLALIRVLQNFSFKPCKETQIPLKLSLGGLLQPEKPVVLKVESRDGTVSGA

half-life [1]: 87 h | IC50 [2]: > 10 µM | IC50 [3]: > 10 µM | half-life [4]: 15 h | Cmax [6]: 700 nM | bioavailability [8]: 50% | AUC [9]: 78 µM·h | AUC [10]: 58.2 µM·h | clearance [11]: 3.7 mL/min/kg | EC50 [12]: > 7.5 µM | EC50 [14]: > 10 µM | fraction unbound [15]: 0.007 | half-life [16]: > 2 h | bioavailability [17]: 100% | half-life [19]: 7 h | IC50 [20]: > 20 µM | concentration at 24 h [21]: 1100 nM | Vd [22]: 2.6 L/kg | bioavailability [24]: 100% | EC50 [25]: > 50 µM | clearance [26]: 1.9 mL/min/kg
Structure (SMILES): O=C(N1CC[C@@]2(S(=O)(=O)c3ccc(F)cc3)c3ccc(C(F)(C(F)(F)F)C(F)(F)F)cc3CC[C@@H]12)C1(O)CCS(=O)(=O)CC1
Efficacy [5]: 98% | inhibition in vivo at 3 mg/kg [7]: 41% | inhibition in vivo at 3 mg/kg [13]: 76% | inhibition in vivo at 10 mg/kg [18]: 51% | inhibition in vivo at 10 mg/kg [23]: 69%
